Values of other authors, collected in patent US20210137911A1, “NOVEL CHRONOTHERAPY BASED ON CIRCADIAN RHYTHMS” (THE TRUSTEES OF THE UNIVERSITY OF PENNSYLVANIA, priority 2014, published 2021).
Positions of bridges follow the written chain, without caps; N, C: chain ends. Non-standard residues stand in square brackets, D forms with d. Residues, ends and D or L forms follow the SMILES beside them. hArg = N=C(N)NCCCC[C@H](N)C(=O)O; Mpa = O=C(O)CCS

Details: half-life of top selling therapeutic compounds (Table 1); cited from earlier work

First: COCc1c(C(C)C)nc(C(C)C)c(/C=C/[C@@H](O)C[C@@H](O)CC(=O)O)c1-c1ccc(F)cc1 [Cerivastatin, reference compound]
Second: CC(C)n1c(/C=C/C(O)CC(O)CC(=O)O)c(-c2ccc(F)cc2)c2ccccc21 (stereo not shown) [Fluvastatin, reference compound]
The “½ Life” value of the first is 1.5-fold lower: 2 h for the first, 3 h for the second.

First: CC1OC2(CS1)CN1CCC2CC1 (stereo not shown) [Cevimeline]
Second: COc1ccc2c(c1)[C@]13CCCC[C@@H]1[C@H](C2)N(C)CC3 [Dextromethorphan]
The “½ Life” value of the first is 1.7-fold higher: 5 h for the first, 3 h for the second.

Going from `Cc1cc(C2CCCCC2)n(O)c(=O)c1` [Ciclopirox] to `CCN1C(=O)NC(c2ccccc2)C1=O` (stereo not shown) [Ethotoin], the “½ Life” value rises from 1.7 h to 3 h (1.8-fold).

First: CCOc1cc(N)c([N+](=O)[O-])cc1C(=O)NC1CCN(CC2CC=CCC2)CC1 (stereo not shown) [Cinitapride]
Second: COc1ccc(C(=O)Nc2ccccc2CCC2CCCCN2C)cc1 (stereo not shown) [Encainide]
The “½ Life” value of the first is 3-fold higher: 3 h for the first, 1 h for the second.

Going from `COc1ccc(C[C@@H]2c3cc(OC)c(OC)cc3CC[N@+]2(C)CCC(=O)OCCCCCOC(=O)CC[N@@+]2(C)CCc3cc(OC)c(OC)cc3[C@H]2Cc2ccc(OC)c(OC)c2)cc1OC` [Cisatracurium Besylate] to `COc1cc2c(c(OC)c1OC)-c1ccc(OC)c(=O)cc1[C@@H](NC(C)=O)CC2` [Colchicine], the “½ Life” value rises from 0.366 h to 1 h (2.7-fold).

`Nc1nc(Cl)nc2c1ncn2[C@H]1C[C@H](O)[C@@H](CO)O1` [Cladribine] and `Nc1nc(Cl)nc2c1ncn2[C@@H]1O[C@H](CO)[C@@H](O)[C@@H]1F` [Clofarabine] are within 1.5-fold of each other in “½ Life” value: 5.4 h for the first, 5.2 h for the second.

Going from `O=C(O)C1N=C(c2ccccc2)c2cc(Cl)ccc2NC1=O` (stereo not shown) [Clorazepate] to `CC(C(=O)O)c1ccc(-c2ccccc2)c(F)c1` (stereo not shown) [Flurbiprofen], the “½ Life” value rises from 2 h to 4.7 h (2.4-fold).

Compared with `CCc1cc2c(s1)N(C)C(=O)CN=C2c1ccccc1Cl` [Clotiazepam], `CCN(CC)CCN1C(=O)CN=C(c2ccccc2F)c2cc(Cl)ccc21` [Flurazepam] is 1.7-fold lower in “½ Life” value: 4 h for the first, 2.3 h for the second.

Going from `Clc1ccccc1C(c1ccccc1)(c1ccccc1)n1ccnc1` [Clotrimazole] to `OC(CCCN1CCCCC1)(c1ccccc1)c1ccccc1` [Diphenidol], the “½ Life” value rises from 2 h to 4 h (2-fold).

Compared with `COC(=O)[C@H]1[C@@H](OC(=O)c2ccccc2)C[C@@H]2CC[C@H]1N2C` [Cocaine], `CCOC(=O)[C@H](CCc1ccccc1)N[C@@H](C)C(=O)N1CCC[C@H]1C(=O)O` [Enalapril, reference compound] is 2-fold higher in “½ Life” value: 1 h for the first, 2 h for the second.

Compared with `CN(CC(=O)O)C(=N)N` [Creatine], `CN(C)/N=N/c1[nH]cnc1C(N)=O` [Dacarbazine] is 1.7-fold higher in “½ Life” value: 3 h for the first, 5 h for the second.

Compared with `O=C1CN(/N=C/c2ccc(-c3ccc([N+](=O)[O-])cc3)o2)C(O)=N1` [Dantrolene], `O=C(CCCN1CC=C(n2c(=O)[nH]c3ccccc32)CC1)c1ccc(F)cc1` [Droperidol] is 2.9-fold lower in “½ Life” value: 4 h for the first, 1.4 h for the second.

Compared with `CN(C)[C@@H](CCOc1cccc2ccccc12)c1ccccc1` [Dapoxetine], `CC(C(=O)O)c1cccc(Oc2ccccc2)c1` (stereo not shown) [Fenoprofen] is 3-fold higher in “½ Life” value: 1 h for the first, 3 h for the second.

Going from `Cc1nc(Nc2ncc(C(=O)Nc3c(C)cccc3Cl)s2)cc(N2CCN(CCO)CC2)n1` [Dasatinib] to `C[C@@H](CO)NC(=O)[C@@H]1C=C2c3cccc4[nH]cc(c34)C[C@H]2N(C)C1` [Ergonovine], the “½ Life” value falls from 3 h to 1 h (3-fold).

First: Nc1ncn([C@H]2C[C@H](O)[C@@H](CO)O2)c(=O)n1 [Decitabine]
Second: Nc1nc(=O)[nH]cc1F [Flucytosine]
The “½ Life” value of the first is 4.7-fold lower: 0.51 h for the first, 2.4 h for the second.

Compared with `Cc1cccc([C@H](C)c2cnc[nH]2)c1C` [Dexmedetomidine], `COc1ccc2nc([S@@+]([O-])Cc3ncc(C)c(OC)c3C)[nH]c2c1` [Esomeprazole] is 2-fold lower in “½ Life” value: 2 h for the first, 1 h for the second.

`C[C@@H](CN1CC(=O)NC(=O)C1)N1CC(=O)NC(=O)C1` [Dexrazoxane] and `Cn1c(=O)c2c(ncn2CC(O)CO)n(C)c1=O` (stereo not shown) [Dyphylline] are within 1.5-fold of each other in “½ Life” value: 2.5 h for the first, 2 h for the second.

Compared with `CCCCC[C@H](O)/C=C/[C@H]1[C@H](O)CC(=O)[C@@H]1C/C=C\CCCC(=O)O` [Dinoprostone], `CCCCc1ncc(/C=C(\Cc2cccs2)C(=O)O)n1Cc1ccc(C(=O)O)cc1` [Eprosartan] is 60-fold higher in “½ Life” value: 0.0833 h for the first, 5 h for the second.

First: OCCN(CCO)c1nc(N2CCCCC2)c2nc(N(CCO)CCO)nc(N3CCCCC3)c2n1 [Dipyridamole]
Second: CCn1cc(C(=O)O)c(=O)c2cc(F)c(N3CCNCC3)nc21 [Enoxacin]
The “½ Life” value of the first is 4.5-fold lower: 0.66 h for the first, 3 h for the second.

`CC(CCc1ccc(O)cc1)NCCc1ccc(O)c(O)c1` (stereo not shown) [Dobutamine] and `NCCc1ccc(O)c(O)c1` [Dopamine] are the same in “½ Life” value: 0.033 h for the first, 0.033 h for the second.

First: N[C@H](C(=O)O)[C@H](O)c1ccc(O)c(O)c1 [Droxidopa]
Second: CNC[C@H](O)c1ccc(O)c(O)c1 [Epinephrine]
The “½ Life” value of the first is 61-fold higher: 2 h for the first, 0.033 h for the second.

`CC(=O)[C@H]1CC[C@H]2[C@@H]3C=CC4=CC(=O)CC[C@@]4(C)[C@@H]3CC[C@]12C` [Dydrogesterone] and `CC(C)(C)NC(=O)[C@H]1CC[C@H]2[C@@H]3CC[C@H]4NC(=O)C=C[C@]4(C)[C@H]3CC[C@]12C` [Finasteride] are within 1.5-fold of each other in “½ Life” value: 5 h for the first, 4.5 h for the second.

First: CN1CCC[C@@H]1Cc1c[nH]c2ccc(CCS(=O)(=O)c3ccccc3)cc12 [Eletriptan]
Second: O=C1NC(c2ccccc2)(c2ccccc2)C(=O)N1COP(=O)(O)O [Fosphenytoin]
The “½ Life” value of the first is 16-fold higher: 4 h for the first, 0.25 h for the second.

`CSc1ccc(C(=O)c2[nH]c(=O)[nH]c2C)cc1` [Enoximone] and `CCOC(=O)c1ncn2c1CN(C)C(=O)c1cc(F)ccc1-2` [Flumazenil] are the same in “½ Life” value: 4 h for the first, 4 h for the second.

`COc1cccc2c1C(=O)c1c(O)c3c(c(O)c1C2=O)C[C@@](O)(C(=O)CO)C[C@@H]3O[C@H]1C[C@H](N)[C@@H](O)[C@H](C)O1` [Epirubicin] and `COc1cc([C@@H]2c3cc4c(cc3[C@@H](O[C@@H]3O[C@@H]5CO[C@@H](C)O[C@H]5[C@H](O)[C@H]3O)[C@H]3COC(=O)[C@H]23)OCO4)cc(OC)c1O` [Etoposide] are within 1.5-fold of each other in “½ Life” value: 3 h for the first, 4 h for the second.

`COC(=O)[C@@H]1CC2=CC(=O)CC[C@]2(C)[C@@]23O[C@@H]2C[C@@]2(C)[C@@H](CC[C@@]24CCC(=O)O4)[C@H]13` [Eplerenone] and `C[C@]12CCC(=O)C=C1CC[C@H]1[C@@H]3CC[C@](O)(C(=O)CO)[C@@]3(C)C[C@H](O)[C@@]12F` [Fludrocortisone] are within 1.5-fold of each other in “½ Life” value: 4 h for the first, 3.5 h for the second.

`COC(=O)CCc1ccc(OCC(O)CNC(C)C)cc1` (stereo not shown) [Esmolol] and `CCOc1ccc2nc(S(N)(=O)=O)sc2c1` [Ethoxzolamide] are within 1.5-fold of each other in “½ Life” value: 2 h for the first, 2.5 h for the second.

Compared with `CCc1cc(C(N)=S)ccn1` [Ethionamide], `CC1(C)O[C@@H]2C[C@H]3[C@@H]4C[C@H](F)C5=CC(=O)C=C[C@]5(C)[C@@]4(F)[C@@H](O)C[C@]3(C)[C@]2(C(=O)CO)O1` [Fluocinolone Acetonide] is 1.5-fold lower in “½ Life” value: 2 h for the first, 1.3 h for the second.

First: CC(O)(P(=O)(O)O)P(=O)(O)O [Etidronic acid]
Second: CC1(C)O[C@@H]2C[C@H]3[C@@H]4C[C@H](F)C5=CC(=O)C=C[C@]5(C)[C@H]4[C@@H](O)C[C@]3(C)[C@]2(C(=O)CO)O1 [Flunisolide]
The “½ Life” value of the first is 1.8-fold lower: 1 h for the first, 1.8 h for the second.

In the case of `O=c1[nH]cc(F)c(=O)[nH]1` [Fluorouracil], the “½ Life” value is listed as 0.166 h.

Same assay, conditions: in vivo; cited from earlier work

`COc1ccc2c3c1O[C@H]1[C@@H](O)C=C[C@H]4[C@@H](C2)N(C)CC[C@@]341` [Codeine] and `C[C@@]12CCCCC[C@@H](Cc3ccc(O)cc31)[C@@H]2N` [Dezocine] are within 1.5-fold of each other in “½ Life” value: 3 h for the first, 2.2 h for the second.

First: Nc1ccn([C@@H]2O[C@H](CO)[C@@H](O)[C@@H]2O)c(=O)n1 [Cytarabine]
Second: CN1C[C@H](C(=O)N[C@]2(C)O[C@@]3(O)[C@@H]4CCCN4C(=O)[C@H](Cc4ccccc4)N3C2=O)C=C2c3cccc4[nH]cc(c34)C[C@H]21 [Ergotamine]
The “½ Life” value of the first is 12-fold lower: 0.166 h for the first, 2 h for the second.

First: Nc1ccncc1 [Dalfampridine]
Second: COC(=O)[C@H](c1ccccc1)[C@H]1CCCCN1 [Dexmethylphenidate]
The “½ Life” value of the first is 1.8-fold higher: 3.5 h for the first, 2 h for the second.

First: NC(=O)CC[C@@H]1NC(=O)[C@H](Cc2ccccc2)NC(=O)[C@H](Cc2ccc(O)cc2)NC(=O)CCSSC[C@@H](C(=O)N2CCC[C@H]2C(=O)N[C@H](CCCN=C(N)N)C(=O)NCC(N)=O)NC(=O)[C@H](CC(N)=O)NC1=O [Desmopressin]
Second: N=C(N)NCCCC[C@@H]1NC(=O)CCSSC[C@@H](C(N)=O)NC(=O)[C@@H]2CCCN2C(=O)[C@H](Cc2c[nH]c3ccccc23)NC(=O)[C@H](CC(=O)O)NC(=O)CNC1=O [Eptifibatide] ([Mpa][hArg]GDWPC-NH2; disulfide 1-7)
The “½ Life” value of the first is 2.5-fold lower: 1 h for the first, 2.5 h for the second.

First: CN1C(=O)CN=C(c2ccccc2)c2cc(Cl)ccc21 [Diazepam]
Second: O=C(O)Cc1ccccc1Nc1c(Cl)cccc1Cl [Diclofenac]
The “½ Life” value of the first is 2-fold lower: 1 h for the first, 2 h for the second.

Going from `CCCCCc1cc(O)c2c(c1)OC(C)(C)[C@@H]1CCC(C)=C[C@@H]21` [Dronabinol] to `C#CC1(OC(N)=O)CCCCC1` [Ethinamate], the “½ Life” value falls from 4 h to 2.5 h (1.6-fold).

Same assay, conditions: see Table 1; cited from earlier work

For `COCc1c(C(C)C)nc(C(C)C)c(/C=C/[C@@H](O)C[C@@H](O)CC(=O)O)c1-c1ccc(F)cc1` [Cerivastatin, reference compound], the half-life is listed as “less than three”.

For `CCOC(=O)[C@H](CCc1ccccc1)N[C@@H](C)C(=O)N1CCC[C@H]1C(=O)O` [Enalapril, reference compound], the minimum reported half-life is listed as 2 h.
